Experimental data reported in patent US20070071692A1, “Aerosol powder formulation” (priority 2005, published 2007).

Test: Particle size of unmilled and jet milled Compound X (optical microscopy, Microtrac, Aerosizer, SEM)
Assay type: physicochemical
From the text: In the studies described below the aerosol performance of micronized Compound X with three different grades of lactose made specifically for inhalation in an Spinhaler® is compared. The carriers studied were milled lactose for inhalation (Respitose™ ML003), sieved lactose for inhalation (Respitose SV003) and granulated lactose for inhalation (Respitose LS243). Each carrier was characterized for particle size, flow properties and morphology. Jet milled Compound X, with an average particle size of 2.8 microns was used in the studies. […] Blends were manufactured with 4% w/w drug loading at a scale of 1 g. Capsules were then filled with 25 mg of blend to achieve a 1 mg nominal dose. Each blend was characterized for blend uniformity, dose uniformity and aerodynamic particle size distribution. Granulated lactose produced the weakest drug aerosolization compared to milled and sieved lactose. […] The delivered shot weight was 92% of target with an in-vitro respirable fraction of 26% and an emitted dose of 34%. The formulation is considered appropriate for animal model studies use however optimization of the formulation and the blending characteristics will be pursued following results from the in-vivo animal studies. Three jet milled samples of Compound X observed using X-ray powder diffraction (XRPD) and thermogravimetry (TGA) that the jet milled samples had similar properties to the unmilled lots. The samples retained their crystalline form. By SEM, it was observed that the jet milled drug was smaller in particle size compared to the unmilled drug, while maintaining the needle-like morphology. Drug particle size ranged from ca. 2-25 μm in length and ca. 2 μm in width with agglomerates up to 50 μm in diameter. Only one of the jet milled lots was used for the described studies below.

Drug particle size, length (SEM, jet milled): 2-25 μm | Drug particle size, width (SEM, jet milled): ca. 2 μm | agglomerates, diameter (SEM, jet milled): up to 50 μm | average particle size (jet milled drug used in the studies): 2.8 microns
Structure (SMILES): O=C(NC1CC1)c1cn(-c2cccc(C#Cc3ccc[n+]([O-])c3)c2)c2ncccc2c1=O [Milled API, N-cyclopropyl-1-[3-(1-oxido-3-pyridinylethynyl)phenyl]-1,4-dihydro[1,8]naphthyridin-4-one-3-carboxamide]
